According to patent publication US10011570B2, “Nucleic acid binding dyes with improved safety” (Biotium, Inc., priority 2013, dated 2018):

Columns and labels:
HeLa cells = assay: Live cell staining (cell membrane permeability, confocal microscopy); assay type: cell-based, human; conditions: for cell staining after 5 minutes incubation / cell staining after 30 minutes incubation: HeLa cells, 37 C, dyes at 0.65 uM, Sybr Safe at 1×; for cellular staining of live cells (cell membrane permeability): normal working concentration used in gel staining, time not stated (FIG. 12)
Method: Dye No. 4, Dye No. […] and SYBR Safe are tested for their cell membrane permeability. HeLa cells were incubated with 1× Sybr Safe, 0.65 uM Dye No 4 and 0.65 uM Dye No. 11 in cell culture medium at 37 C. Hoechst 33342 (1 ug/mL) was included to stain DNA with blue fluorescence. Cells were imaged after 5 minutes and 30 minutes incubation on the appropriate fluorescence channel (FITC for Sybr Safe and Dye No. 4, and Cy3 for Dye No. […]) on a Zeiss LSM 700 confocal microscope. […] Hoechst staining for the same microscopic field is shown below each image (D-F, J-L).

[1] = California Title 22 toxicity test for hazardous waste characterization; assay type: in vivo, Pimephales promelas; conditions: Pimephales promelas (fathead minnow), in vivo; 0.65 uM dye solution in water tested at 750, 500 and 250 mg/L, Fathead minnow; read-out: median lethal concentration (LC50)
Method: (§1) Stock solutions of Dye No. 11 and Dye No. 4 at 0.65 uM each in water were submitted to Nautilus Environmental (San Diego, Calif.) for California Title 22 toxicity testing for hazardous waste characterization. The solutions were tested at 750, 500, and 250 mg/L plus lab control in Pimephales promelas (Fathead minnow) in two replicates of 10 fish each according to the California Department of Fish and Game 1988 Acute Procedures.

[2] = system: Pimephales promelas (Fathead minnow); assay: as above; assay type: in vivo; conditions: 0.65 uM dye solution in water, aquatic life
Method: as §1

[3] = system: 1 kb DNA ladder in 1% agarose gel; assay: Post staining of agarose gels; conditions: 0.65 uM dye in water, 30 minutes, 1 kb DNA ladder 200-25 ng per lane
Method: Two-fold dilutions of 1 kb DNA ladder (Biotium, 200 ng-25 ng) or low-molecular weight DNA ladder (NEB, 50-12.5 ng/lane) were separated on 1% agarose/1×TBE gels in 1× TBE at 110 V for 90 minutes. Gels were post-stained with dyes at indicated concentrations in 50 mL staining solution with rocking for 30 minutes at room temperature, protected from light. The staining solutions were prepared by adding a dye stock solution in DMSO to water. […] In particular, dyes of the invention can readily penetrate dense polyacrylamide gels. […] Use of low dye concentration in the staining, coupled with the dyes' low cell membrane permeability (See below), makes the dyes safer to handle. Compound 25 of U.S. Pat. No. 7,446,202 is an asymmetric cyanine dye comprising a negatively charged substituent. The dye is described to be a sensitive dsDNA binding dye useful for selective dsDNA quantitation in solution. In this experiment, this dye is compared with the asymmetric cyanine dye Dye No. 4 of the present invention in detecting dsDNA in agarose gel. 1 kb DNA ladder (Biotium) was loaded on a 1% agarose/1×TBE gel at 200, 100, 50, or 25 ng per lane in duplicate and separated by electrophoresis at 100V. […]

Calf Thymus DNA; RNA = assay: Nucleic acid detection in solution (fluorescence titration); assay type: binding; conditions: 2 uM Dye No. 4 or 1.3 uM Compound 25 in TE buffer, fluorescence microplate reader
Method: Compound 25 of U.S. Pat. No. 7,446,202 and Dye No. 4 were compared in nucleic acid detection in solution. Calf Thymus DNA (Sigma) was used to titrate 2 uM Dye No. 4 or 1.3 uM Compound 25 of U.S. Pat. No. 7,446,202 in TE buffer. The fluorescence of the solution was measured on a fluorescence microplate reader (200 uL volume/well and 5 minutes incubation time). Same optical setting was used for both dyes as the two dyes have nearly identical spectral profile.

[4] = system: 1 kb DNA ladder in 1% agarose TBE gels; assay: Prestaining of agarose gels; conditions: dye mixed with DNA in loading buffer, compared with propidium iodide
Method: Two-fold dilutions of 1 kb DNA ladder (200 ng-25 ng per lane) were mixed with propidium iodide (PI) or Dye No, 10 in DNA loading buffer at the final concentrations indicated and separated on 1% agarose TBE gels containing no additional DNA dye.

SMILES	cell staining after 5 minutes incubation (HeLa cells)	cell staining after 30 minutes incubation (HeLa cells)	cellular staining of live cells (cell membrane permeability) (HeLa cells)	LC50 [1] [mg/L]	classification under CCR Title 22 regulations [2]	signal of stained gel compared with Compound 25 [3]	nucleic acid binding profile (dsDNA versus RNA) (Calf Thymus DNA; RNA)	brightness in prestaining of gels [4]
C[n+]1c(C=C2C=CN(CCCSCC(N)C(=O)[O-])c3ccccc32)sc2ccccc21.I (stereo not shown) [Dye No. 4]	no staining was detectable	no staining was detectable	did not produce any cellular staining at all	> 750	non-hazardous	significantly higher signal	binds to both dsDNA and RNA	–
CC[N+](C)(CC)CCC[n+]1c(-c2ccc(S(=O)(=O)[O-])cc2)c2cc(N)ccc2c2ccc(N)cc21.[I-] [Dye No. 10]	–	–	–	–	–	–	–	as bright as PI
C[N+](C)(C)CCC[n+]1c(-c2ccc(S(=O)(=O)[O-])cc2)c2cc(N)ccc2c2ccc(N)cc21.[I-] [Dye No. 11]	no staining was detectable	no staining was detectable	did not produce any cellular staining at all	> 750	non-hazardous	–	–	–
